# Earlier results, collected in article PMC11320730, “5-Methoxy-2-aminoindane Reverses Diet-Induced Obesity and Improves Metabolic Parameters in Mice: A Potential New Class of Antiobesity Therapeutics” (ACS Pharmacology & Translational Science, 2024).
# Legend:
# [1] = test system: lean mice, DIO mice, ob/ob mice and melanocortin-receptor 4 knockout mice; parameters: method as in PMID 35953488; details: ob/ob and melanocortin-receptor 4 knockout mice; cited from earlier work
# [2] = test system: adult female participants with anorexia nervosa; details: single 25 mg dose with psychological support, 10 adult female participants; cited from earlier work
# [3] = test system: rats fed a cafeteria diet; parameters: method as in PMID 35664477; details: cited from earlier work
smiles,measurement,setting,value
CN(C)CCc1c[nH]c2cccc(OP(=O)(O)O)c12 [psilocybin],body weight,[1],no impact
same,food intake,[1],no impact
same,safety and tolerability (adverse events),[2],no clinically significant adverse events observed
same,weight loss,[3]; at the given doses,no effect
same,weight gain,[3],reduced
